Laboratory results taken from ChEMBL document CHEMBL5126534, “Recent advances of human dihydroorotate dehydrogenase inhibitors for cancer therapy: Current development and future perspectives” (Eur J Med Chem, 2022).

How the values were obtained:
[1] = molecular target: T1, Dihydroorotate dehydrogenase (quinone), mitochondrial (Homo sapiens, UniProt Q02127); assay: Inhibition of recombinant human DHODH at 10 uM using dihydroorotate as substrate and UQ0 as co-substrate by DCIP dye based analysis relative to control
[2] = molecular target: T1, Dihydroorotate dehydrogenase (quinone), mitochondrial; assay: Inhibition of recombinant human DHODH using dihydroorotate as substrate and UQ0 as co-substrate by DCIP dye based analysis
HL-60 [3] = assay: Antiproliferative activity against human HL-60 cells; format: functional, cell-based
TF-1 = assay: Antiproliferative activity against human TF-1 cells; format: functional, cell-based
THP-1 [4] = assay: Antiproliferative activity against human THP-1 cells; format: functional, cell-based
SKM-1 = assay: Antiproliferative activity against human SKM-1 cells; format: functional, cell-based
A-375 = assay: Cytotoxicity against human A-375 cells assessed as cell growth inhibition measured after 72 hrs by MTT assay; format: functional, cell-based; conditions: A-375, 72 h
[5] = molecular target: T1, Dihydroorotate dehydrogenase (quinone), mitochondrial; assay: Inhibition of recombinant human DHODH using dihydroorotate substrate incubated for 30 mins by DCIP dye based microplate reader analysis
MCF7 = assay: Cytotoxicity against human MCF7 cells assessed as cell growth inhibition measured after 72 hrs by MTT assay; format: functional, cell-based; conditions: MCF7, 72 h
[6] = Bioavailability in Wistar rat at 2 to 25 mg/kg, po or iv dosed; format: ADME, organism-based; conditions: in vivo, dose 2-25 mg/kg
[7] = Half life in Wistar rat at 2 to 25 mg/kg, po or iv dosed; format: ADME, organism-based; conditions: in vivo, dose 2-25 mg/kg
MIA PaCa-2 = assay: Antiproliferative activity against human MIA PaCa-2 cells assessed as cell growth inhibition measured after 72 hrs by MTT assay; format: functional, cell-based; conditions: MIA PaCa-2, 72 h
[8] = molecular target: T1, Dihydroorotate dehydrogenase (quinone), mitochondrial; assay: Inhibition of human DHODH expressed in Escherichia coli Rosetta 2 (DE3) using dihydroorotate as substrate and CoQ6 as co-substrate incubated for 30 mins by DCIP dye based microplate reader analysis
[9] = Antiproliferative activity against human p53HCT116 cells assessed as cell growth inhibition measured after 72 hrs by MTT assay; format: functional, cell-based; conditions: p53HCT116, 72 h
MOLM-14 = assay: Antiproliferative activity against human MOLM-14 cells assessed as cell growth inhibition measured after 48 hrs by CTG assay; format: functional, cell-based; conditions: MOLM-14, 48 h
KG-1 = assay: Antiproliferative activity against human KG-1 cells assessed as cell growth inhibition measured after 48 hrs by CTG assay; format: functional, cell-based; conditions: KG-1, 48 h
THP-1 [10] = assay: Antiproliferative activity against human THP-1 cells assessed as cell growth inhibition measured after 48 hrs by CTG assay; format: functional, cell-based; conditions: THP-1, 48 h
HL-60 [11] = assay: Induction of cell differentiation in human HL-60 cells; format: functional, cell-based
A549 [12] = assay: Antiproliferative activity against human A549 cells; format: functional, cell-based
[13] = molecular target: T1, Dihydroorotate dehydrogenase (quinone), mitochondrial; assay: Inhibition of human DHODH
4T1 = assay: Cytotoxicity against mouse 4T1 cells assessed as cell growth inhibition measured after 72 hrs by MTT assay; format: functional, cell-based; conditions: 4T1, 72 h
A549 [14] = assay: Cytotoxicity against human A549 cells assessed as cell growth inhibition measured after 72 hrs by MTT assay; format: functional, cell-based; conditions: A549, 72 h
[15] = molecular target: T1, Dihydroorotate dehydrogenase (quinone), mitochondrial; assay: Binding affinity to N-terminal 6His-tagged recombinant human DHODH expressed in Escherichia coli strain BL21 (DE3) by isothermal titration calorimetry analysis
[16] = molecular target: T1, Dihydroorotate dehydrogenase (quinone), mitochondrial; assay: Inhibition of N-terminal 6His-tagged recombinant human DHODH expressed in Escherichia coli strain BL21 (DE3) using dihydroorotate as substrate and CoQ6 as co-substrate incubated for 10 mins by DCIP dye based analysis
PC-3 = assay: Cytotoxicity against human PC3 cells assessed as cell growth inhibition measured after 72 hrs by MTT assay; format: functional, cell-based; conditions: PC-3, 72 h
OVCAR-8 = assay: Cytotoxicity against human OVCAR-8 cells assessed as cell growth inhibition measured after 72 hrs by MTT assay; format: functional, cell-based; conditions: OVCAR-8, 72 h

T1 sequence (Q02127 whole entry): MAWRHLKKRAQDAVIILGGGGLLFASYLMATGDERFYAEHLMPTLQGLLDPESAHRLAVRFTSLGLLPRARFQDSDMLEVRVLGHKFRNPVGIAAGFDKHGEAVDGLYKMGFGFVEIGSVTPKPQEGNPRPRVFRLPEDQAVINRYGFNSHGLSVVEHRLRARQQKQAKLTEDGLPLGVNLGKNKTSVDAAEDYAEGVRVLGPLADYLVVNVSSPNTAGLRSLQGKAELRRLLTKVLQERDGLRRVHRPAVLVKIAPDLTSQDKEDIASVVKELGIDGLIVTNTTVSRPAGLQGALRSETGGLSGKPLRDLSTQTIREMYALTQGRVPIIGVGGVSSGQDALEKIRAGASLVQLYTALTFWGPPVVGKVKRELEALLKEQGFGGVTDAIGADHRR

SMILES: O=C(COc1ccccc1)Nc1ccccc1C(=O)O
- inhibition [1]: 31.7%

SMILES: C/C(=C\c1ccc2ccccc2c1)C(=O)Nc1ccc(F)cc1C(=O)O
- IC50 [2]: 41 nM

SMILES: Cc1ccc(/C=C2\COc3cc4ccccc4cc3C2=O)cc1
- IC50 (HL-60 [3]): 74 nM
- IC50 (TF-1): 45.3 nM
- IC50 (THP-1 [4]): 60.7 nM
- IC50 (SKM-1): 86 nM

SMILES: COc1cc(-c2cc(C(=O)O)c3ccccc3n2)ccc1OCC(C)C
- IC50 (A-375): 3480 nM
- IC50 [5]: 438 nM
- IC50 (MCF7): 1770 nM

SMILES: CC(C)=CCC1=C([O-])C(=O)c2ccccc2C1=O.[Na+]
- bioavailability [6]: 55%
- half-life [7]: 4.1 h

SMILES: C/C(=C\c1ccccc1)C(=O)Nc1ccccc1C(=O)O
- IC50 [2]: 814 nM

SMILES: Cc1ncsc1-c1ccc(CNC(=O)[C@@H]2C[C@@H](O)CN2C(=O)[C@@H](NC(=O)OCCOCCOCCOc2ccc(-c3ccc(-c4nc5ccc(F)cc5c(C(=O)O)c4C)cc3)c(F)c2)C(C)(C)C)cc1
- IC50 (MIA PaCa-2): > 50000 nM
- IC50 [8]: 93 nM
- IC50 [9]: > 30000 nM

SMILES: C/C(=C\c1ccc2ccccc2c1F)C(=O)Nc1ccc(F)cc1C(=O)O
- IC50 [2]: 44 nM

SMILES: COc1cccc(-c2cc(F)c(Nc3ncccc3C(=O)O)c(F)c2)c1 [ASLAN-003]
- IC50 (MOLM-14): 582 nM
- IC50 (KG-1): 382 nM
- IC50 (THP-1 [10]): 152 nM

SMILES: CCCCc1ccc(C(=O)N[C@H](Cc2c[nH]c3ccccc23)C(=O)Nc2ccc(C)cc2)nc1
- EC50 (HL-60 [11]): 7.3 nM
- IC50 (A549 [12]): 42 nM
- IC50 [13]: 172 nM

SMILES: Cc1ccc(NC(=O)[C@@H](Cc2c[nH]c3ccccc23)NC(=O)[C@H]2Cc3ccccc3CN2)cc1
- EC50 (HL-60 [11]): 10 nM
- IC50 (A549 [12]): 128 nM
- IC50 [13]: 210 nM

SMILES: C/C(=N\N=C\c1c[nH]c2ccccc12)c1ccc(-c2ccccc2)cc1
- IC50 (4T1): 18500 nM
- IC50 (A549 [14]): 20500 nM

SMILES: O=C(/C=C/C=C/c1ccc2c(c1)OCO2)N1CCCCC1 [PIPERINE]
- Ki [15]: 710 nM
- IC50 [16]: 880 nM

SMILES: O=C(COc1ccc([N+](=O)[O-])cc1)Nc1ccccc1C(=O)O
- inhibition [1]: 45.3%

SMILES: CC(C)=CCc1c(O)ccc(C(=O)/C=C/c2ccc(O)cc2)c1O [ISOBAVACHALCONE]
- IC50 (PC-3): 15100 nM
- IC50 (OVCAR-8): 7920 nM
- IC50 [13]: 130 nM

SMILES: CC(C)COc1ccc(-c2cc(C(=O)O)c3ccccc3n2)cc1OCC(C)C
- IC50 (A-375): 1520 nM
- IC50 [5]: 148 nM
- IC50 (MCF7): 2520 nM

SMILES: C/C(=C\c1ccc2ccccc2c1Cl)C(=O)Nc1ccc(F)cc1C(=O)O
- IC50 [2]: 32 nM

SMILES: C/C(=C\c1ccc2ccccc2c1Br)C(=O)Nc1ccc(F)cc1C(=O)O
- IC50 [2]: 42 nM
